Test results: article PMC6938345, “Inhibition of complement activation, myeloperoxidase, NET formation and oxidant activity by PIC1 peptide variants” (PLoS ONE, 2019)
Entries after “also recorded” stand apart in the source; their conditions may differ.

What was measured:
[1] = test system: antibody-initiated complement activation (type O sera + type AB red blood cells); assay: ABO incompatibility hemolytic assay (CH50-type, ex vivo); format: cell-based, human; details: peptides 1.8 mM
Method: (§1) For hemolytic complement assays, human red blood cells (RBCs) from type AB donors were purified, washed and standardized to 1 × 10^9 cells/ml, as previously described. Human sera from type O donors at a 20% final concentration was combined with 1 mM PIC1 or sarcosine variant peptides and the volume was brought up to 0.15 ml with GVBS^++ and 0.5 ml RBCs. For factor B-depleted sera hemolytic assays, a final of 0.005% factor B depleted sera was incubated with 1 mM PIC1 or sarcosine variant peptides with 0.1 ml antibody-sensitized sheep red blood cells (EA) in a final volume of 0.75 ml GVBS^++. The samples were incubated for 1 hour at 37 °C and then 1.0 ml of GVBS^-—was added to the factor B-depleted samples to stop the reaction. The samples were spun at 3,000 rpm for 5 minutes and the supernatant was collected and read at 412 nm. Values are represented as a percent of the positive control, which consists of human O sera and AB red blood cells in GVBS^++ buffer.
In order to evaluate the extent to which the peptide variants inhibit antibody-initiated complement activation, we tested them in two hemolytic assays including an ABO incompatibility ex vivo assay (Fig 1A) and a classical pathway CH50-type assay in factor B-depleted sera (Fig 1B). In the ABO incompatibility hemolytic assay, purified erythrocytes from a ‘type AB+’ donor are incubated with sera from a ‘type O’ subject containing anti-A and anti-B antibodies; peptides were tested at 1.8 mM. […] We then performed a CH50-type hemolytic assay, with antibody-sensitized sheep erythrocytes, isolating the classical pathway by utilizing factor B-depleted sera; peptides were tested at 0.4 mM.
Fig 1 Sarcosine variant inhibition of complement activation in hemolytic assays and C1q binding. A) Inhibition of ABO incompatibility hemolysis in a CH50-type assay. Peptides are at a final concentration of 1.8 mM. […] Data are the means of n = 4 independent experiments + SEM. B) Inhibition of classical complement pathway-mediated hemolysis in factor B-depleted sera in a CH50-type assay. Peptides are at a final concentration of 0.4 mM. Data are the means of n = 4 independent experiments + SEM. C) Binding of increasing concentrations of sarcosine variants to purified C1q in an ELISA-type assay. Data are the means of n = 3 independent experiments ± SEM. D) Half-maximal binding concentrations were calculated for each peptide’s binding curve.

[2] = test system: classical complement pathway (factor B-depleted human sera + antibody-sensitized sheep erythrocytes); assay: Classical pathway CH50-type hemolytic assay in factor B-depleted sera; format: cell-based; details: peptides 0.4 mM, P < 0.001
Method: as §1, with “buffer. […]” for “buffer.”
Fig 1 Sarcosine variant inhibition of complement activation in hemolytic assays and C1q binding. […] D) Half-maximal binding concentrations were calculated for each peptide’s binding curve.

C1q = target: T1, C1q (Homo sapiens, UniProt P02745+P02746+P02747); assay: C1q binding ELISA-type assay; details: C1q as capture substrate
T1 construct: purchased Complement Technology (Tyler, TX)
T1 sequence (P02745 23-245): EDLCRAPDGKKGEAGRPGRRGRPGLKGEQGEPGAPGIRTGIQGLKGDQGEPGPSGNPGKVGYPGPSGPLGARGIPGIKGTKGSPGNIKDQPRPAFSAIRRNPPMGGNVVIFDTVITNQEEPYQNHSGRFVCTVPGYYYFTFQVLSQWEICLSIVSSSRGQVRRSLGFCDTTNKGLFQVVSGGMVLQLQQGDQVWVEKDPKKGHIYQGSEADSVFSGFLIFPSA
T1 sequence (P02746 28-253): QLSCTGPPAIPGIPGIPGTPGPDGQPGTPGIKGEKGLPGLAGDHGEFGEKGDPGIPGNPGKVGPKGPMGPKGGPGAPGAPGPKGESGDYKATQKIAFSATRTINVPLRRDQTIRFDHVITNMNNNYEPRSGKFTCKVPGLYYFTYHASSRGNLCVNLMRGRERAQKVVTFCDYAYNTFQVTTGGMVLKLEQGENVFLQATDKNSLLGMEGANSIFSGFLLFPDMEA
T1 sequence (P02747 29-245): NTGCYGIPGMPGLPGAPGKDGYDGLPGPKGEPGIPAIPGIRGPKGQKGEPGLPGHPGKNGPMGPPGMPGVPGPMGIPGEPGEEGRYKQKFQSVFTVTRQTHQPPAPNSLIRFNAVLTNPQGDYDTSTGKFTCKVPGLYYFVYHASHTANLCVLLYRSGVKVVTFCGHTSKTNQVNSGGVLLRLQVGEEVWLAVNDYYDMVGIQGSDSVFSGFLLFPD
Method: An Immunlon-2 HB ELISA plate was coated with 1 μg/ml C1q or MPO in bicarbonate buffer overnight at 4 °C. The plates were washed with PBST (phosphate buffered saline + 0.1% Tween) and then blocked with 1% gelatin/PBS for 2 hours at room temperature. After washing, the plates were incubated with PA or sarcosine variant peptides starting at 2.5 mg/ml and then serially diluted in 1% gelatin/PBS for 1 hour at room temperature. After washing, the plates were probed with rabbit anti-PA (developed with Cocalico Biologicals, Reamstown, PA) at 1:1000 in 1% gelatin/PBS for 1 hour, room temperature, followed by a goat anti-rabbit HRP (Sigma Aldrich, St Louis, MO) at 1:1,000 in 1% gelatin/PBS for 1 hour at room temperature with a washing step in between. Wells were developed using TMB substrate solution, stopped using 1 N H2SO4, and read at 450 nm in a plate reader.
We then tested peptide variant binding to C1q in an ELISA-type assay in which the C1q is used as the capture substrate. Binding curves for each peptide is shown in Fig 1C, from which half-maximal binding concentrations were calculated (Fig 1D). […] Higher concentrations of DMSO interfere with the detecting reagents resulting in a partial binding curve.

Myeloperoxidase (MPO) = target: T2, Myeloperoxidase (MPO) (Homo sapiens, UniProt P05164); assay: MPO activity assay (TMB-based); format: biochemical; details: range of concentrations
T2 construct: purchased Lee BioSolutions (Maryland Heights, MO)
T2 sequence (P05164 49-745): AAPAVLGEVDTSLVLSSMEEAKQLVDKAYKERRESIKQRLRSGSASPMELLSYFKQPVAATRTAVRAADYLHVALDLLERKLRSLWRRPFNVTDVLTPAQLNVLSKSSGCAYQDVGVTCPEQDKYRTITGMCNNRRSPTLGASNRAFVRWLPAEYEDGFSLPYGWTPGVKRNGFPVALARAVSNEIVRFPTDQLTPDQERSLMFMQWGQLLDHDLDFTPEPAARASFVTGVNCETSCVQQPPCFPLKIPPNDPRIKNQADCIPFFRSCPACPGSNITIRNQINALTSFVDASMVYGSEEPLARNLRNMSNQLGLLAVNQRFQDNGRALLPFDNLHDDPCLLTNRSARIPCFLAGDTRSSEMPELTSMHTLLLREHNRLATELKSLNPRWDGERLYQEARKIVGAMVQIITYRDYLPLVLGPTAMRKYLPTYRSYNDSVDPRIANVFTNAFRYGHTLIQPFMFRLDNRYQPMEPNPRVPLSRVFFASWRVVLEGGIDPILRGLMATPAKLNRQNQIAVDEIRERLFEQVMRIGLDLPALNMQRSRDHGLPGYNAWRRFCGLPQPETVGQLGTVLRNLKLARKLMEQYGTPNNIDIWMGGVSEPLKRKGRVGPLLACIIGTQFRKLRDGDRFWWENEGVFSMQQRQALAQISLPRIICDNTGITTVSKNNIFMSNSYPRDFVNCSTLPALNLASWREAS
Method: PIC1 and sarcosine variants were diluted to 25 mg/ml and then serially titrated in a 96 well plate at a volume of 0.02 ml. Myeloperoxidase (MPO) was diluted to 20 μg/ml and 0.02 ml was added to the titrated peptides. TMB (3,3′,5,5′-tetramethylbenzidine) (0.1 ml) was added to each well for 2 minutes, followed by 0.1 ml of 2.5 N H2SO4 for another 2 minutes, and then read on a 96 well plate reader (BioTek) at 450 nm.
In this assay, the variants were tested for MPO inhibition over a range of concentrations (Fig 2A). Strong MPO inhibition was found for all variants with the exception of the no-cysteine variant (C9,10).

[3] = Total Antioxidant Capacity (TAC) assay
Method: The TAC (Total Antioxidant Capacity) Assay (Cell Biolabs, Inc, San Diego, CA) was used to measure the antioxidant capacity of the sarcosine variants based on the reduction of copper (II) to copper (I). The kit protocol was performed as recommended.
Antioxidant activity is measured in copper reducing equivalents (CRE). Peptides were tested over a range of concentrations from 0.03–0.25 mM then compared to the standard. Data are the means of n = 3 independent experiments + SEM.

Question: Which ABO hemolysis ([1]; Avg of n = 4, concentration basis of PIC1 not stated) does the source give for `CC[C@H](C)[C@H](N)C(=O)N[C@@H](C)C(=O)N[C@@H](CC(C)C)C(=O)N[C@H](C(=O)N[C@@H](CC(C)C)C(=O)N[C@@H](CCC(=O)O)C(=O)N1CCC[C@H]1C(=O)N(C)CC(=O)N[C@@H](CS)C(=O)N[C@@H](CS)C(=O)N[C@@H](CCC(N)=O)C(=O)N[C@@H](CCC(=O)O)C(=O)N[C@@H](CCCNC(=N)N)C(=O)N[C@@H](C)C(=O)N[C@@H](C)C(=O)O)[C@@H](C)CC` [I8] here?
Answer: 13.50 % of Control

Question: What about the “inhibition of ABO incompatible hemolysis (in words)” value [1] of the same compound?
Answer: to a greater extent than did the PA-dPEG24

Question: What about the “decrease of ABO hemolysis more than PA-dPEG24” value ([1]; equimolar basis, P < 0.002) of the same compound?
Answer: 53%

Question: What about the “inhibition of hemolysis more than PA-dPEG24” value [2] of the same compound?
Answer: 75%

Question: What about the “binding to C1q (in words)” value (C1q) of the same compound?
Answer: superior binding to C1q; also recorded: slightly superior to that of PA-dPEG24

Question: What about the “MPO inhibition (in words)” value (Myeloperoxidase (MPO)) of the same compound?
Answer: greatest potency

Question: What about the “TAC assay, antioxidant activity” value ([3]; Avg of n = 3) of the same compound?
Answer: 1239.37 copper reducing equivalents (CRE)

Question: What about the “antioxidant capacity (in words)” value ([3]; TAC assay) of the same compound?
Answer: approaching that of PA-dPEG24
